These are literature values, as cited in patent US8119653B2, “Belactosin derivatives as therapeutic agents/biological probes and their synthesis” (The Texas A&M University System, priority 2006, dated 2012).

The conditions of data set [1]: in vivo.

Turning to `CCCCCCCCCCC[C@@H](C[C@@H]1OC(=O)[C@H]1CCCCCC)OC(=O)[C@H](CC(C)C)NC=O` [Orlistat], the solubility entry is listed as “poor”. Also, in the data set with tumor growth, the “tumor growth in vivo” value is listed as “can inhibit tumor growth”. The bioavailability entry in data set [1] is “poor”. Also, the “effect on tumor cells in vitro” value in the data set with tumor cells is “cytotoxic and cytostatic”.
